Data taken from patent US11833137B2, “Substituted chromenones, IRE1 inhibitors, and methods of using same” (The Wistar Institute, priority 2018, dated 2023).
Entries after “also recorded” stand apart in the source; their conditions may differ.

Tests used:
[1] = Fluorescence stability (decomposition) in aqueous solution; format: physicochemical; settings: 37° C.
Protocol: (FIG. 2B) 5TGM1 cells were treated with DMSO or with 20 μM 2, 4, 3, or 7 dissolved in DMSO for 3 days and subjected to XTT assays. Percentages of growth were determined by comparing treated groups with control groups (DMSO). Each data point derived from four independent groups receiving exactly the same treatment was plotted as mean±SD. Results are representative of three independent experiments. […] The values of I/I0 were plotted as a function of time and shown in the inset. I0 was the initial fluorescence intensity of 4 at 0 h. […] The values of I/I0 were plotted as a function of time and shown in the inset. I0 was the initial fluorescence intensity of 5 at 0 h. […] (FIG. 2G) The decomposition rates of 7 and 8 were plotted as a function of time in RPMI media incubated at 37° C. Aliquots were analyzed by HPLC and the peaks integrated.
FIGS. 5A-5J illustrate the finding that installation of a boronate cage cleavable by H2O2 stabilizes the 1,3-dioxane acetal protective group of D-F07 to allow for temporal inhibition of XBP-1s upon contact with H2O2. (FIG. 5A) A scheme showing that installation of a boronate-caged group stabilizes the 1,3-dioxane acetal protective group to allow for H2O2-mediated release of intact D-F07. (FIG. 5B) The fluorescence of BC-D-F07a (2.5 μM in the DMSO/PBS solution (v/v=1:99), Ex=360 nm) increases upon incubation with 0 to 200 μM hydrogen peroxide at room temperature for 1 h. (FIG. 5C) The fluorescence of BC-D-F07b (2.5 μM in the DMSO/PBS solution (v/v=1:99), Ex=360 nm) increases upon incubation with 0 to 2 mM hydrogen peroxide at 37° C. for 1 h. […] I0 was the initial fluorescence intensity of D-F07, BC-D-F07a or BC-D-F07b at 0 h. (FIG. 5E) The levels of hydrogen peroxide produced by 5TGM1, 72-h LPS-stimulated primary CLL, MEC2, and WaC3 cells were measured by Amplex Red with or without the addition of extracellular catalase (500 U/mL). (FIG. 5F) 5TGM1 cells were treated with BC-D-F07a at increasing concentrations for 24 h, lysed, and analyzed for the expression of indicated proteins by immunoblots. (FIG. 5G) CD5+ CLL cells purified from spleens of Eμ-TCL1 mice were stimulated with […], subsequently treated with BC-D-F07a at 20 μM for 16 h, and then incubated with hydrogen peroxide at indicated concentrations for another 4 h. Cells were lysed and analyzed for the expression of indicated proteins by immunoblots. […] Cells were lysed and analyzed for the expression of indicated proteins by immunoblots. […] Percentages of growth were determined by comparing treated groups with control groups (DMSO). […]
UV-vis and fluorescence spectra were carried out on a BioTek SYNERGY™ NEO2 instrument (96 well plate).

[2] = system: XBP-1s expression, 5TGM1 cells; assay: XBP-1s immunoblot in 5TGM1 multiple myeloma cells; format: cell-based, mouse; settings: for inhibition of XBP-1s expression, short term: 2.5 μM for 1, 2 or 4 h; for suppression of XBP-1s expression, long term: 10 μM for a course of 3 days
Protocol: 5TGM1 mouse multiple myeloma cells, primary mouse B cells, primary mouse Eμ-TCL1 CLL cells, and human CLL cell lines (MEC2 and WaC3) were cultured at 37° C. in a 5% CO2 incubator using RPMI 1640 media (Gibco) supplemented with 10% heat-inactivated FBS, 2 mM L-glutamine, 100 U/mL penicillin G sodium, 1 mM sodium pyruvate, 0.1 mM non-essential amino acids, 100 μg/mL streptomycin sulfate and 0.1 mM β-mercaptoethanol (β-ME).
(§1) Cells were lysed using RIPA buffer (10 mM Tris-HCl, pH 7.4, 150 mM NaCl, 1% NP-40, 0.5% sodium deoxycholate, 0.1% SDS, and 1 mM EDTA) supplemented with protease inhibitors (Roche). Protein concentrations were determined by BCA assays (Pierce).
(§2) Samples were boiled in SDS-PAGE sample buffer (62.5 mM Tris-HCl, pH 6.8, 2% SDS, 10% glycerol, 0.1% bromophenol blue) with β-ME and analyzed by SDS-PAGE. Proteins were transferred to nitrocellulose membranes, blocked in 5% nonfat milk (wt/vol in PBS), and immunoblotted with indicated primary antibodies and appropriate horseradish peroxidase-conjugated secondary antibodies. Immunoblots were developed using Western Lighting Chemiluminescence Reagent (PerkinElmer).
To develop inhibitors with improved potency to target the IRE1/XBP-1 pathway, tricyclic chromenone-based IRE1 RNase inhibitors with different amine group (R^1) were synthesized and compared: allyloxycarbonyl (alloc) in B-H09 (1), —H in C-B06 (2), and —CH3 in C-D06 (3) (FIG. 1A). 5TGM1 multiple myeloma cells were chosen to evaluate inhibitory effects of these inhibitors because they have constitutively activated IRE1/XBP-1 pathways.

5TGM1 cells = assay: Cell proliferation XTT assay, 5TGM1; format: cell-based, mouse
Protocol: 5TGM1 cells were suspended in phenol red-free RPMI media, seeded in 96-well cell culture plates, and treated with indicated IRE1 inhibitors (20 μM, unless indicated otherwise). At indicated time points, cells were spun down and cell proliferation was assessed by XTT assays (Roche) according to the manufacturer's instructions. Briefly, 50 μl XTT labeling reagent, 1 μl electron-coupling reagent, and 100 μl phenol red-free RPMI media were combined and applied to each well of the 96-well plates. Cells were incubated for 4 h in a CO2 incubator to allow for the yellow tetrazolium salt XTT to be cleaved by mitochondrial dehydrogenases of metabolically active cells to form the orange formazan dye, which can be quantified at 492 nm using a BioTek SYNERGY™ NEO2 Multimode Reader.

[3] = Compound degradation HPLC assay; format: physicochemical; settings: 37° C.
Protocol: A 20 mM DMSO stock solution of analyte compounds (7, 8, D-F07, PC-D-F07 and TC-D-F07) were diluted to 400 μM with PBS, pH 7.4, or to 800 μM with RMPI plus 10% FBS culture media (experiments with TC-D-F07 were performed using RPMI without FBS). After incubation at 37° C., aliquots at various time points were injected onto an analytical HPLC instrument and the peaks integrated (UV monitored at 220 nm). Intact compound relative to t=0 was plotted as a function of time.

[4] = system: XBP-1s expression, LPS-stimulated primary mouse B cells; assay: XBP-1s immunoblot in LPS-stimulated primary B cells; format: cell-based; settings: 2.5 or 5 μM for 2 h
Protocol: FIG. 8 illustrates chemical structures of 6, 4, 7, 8, and 9. Primary B cells purified from spleens of wild-type mice were stimulated with LPS for 72 h, subsequently treated with indicated inhibitors at 2.5 or 5 μM for 2 h, lysed, and analyzed for the expression of indicated proteins by immunoblots.
as §1, §2
LPS-stimulated primary mouse B cells were similarly treated with the same inhibitors at 2.5 or 5 μM for 2 h. […] HPLC degradation experiments confirmed that this was indeed the case (FIG. 2G).

WaC3 cells = assay: Cell proliferation XTT assay, WaC3; format: cell-based, human; settings: 20 μM for a course of 3 days
MEC2 cells = assay: Cell proliferation XTT assay, MEC2; format: cell-based, human; settings: indicated concentrations, 24 h

For `COc1cc2c3c(c(=O)oc2c(C2OCCCO2)c1B1OC(C)(C)C(C)(C)O1)CN(C)CC3` [BC-D-F07b, 7-(1,3-dioxan-2-yl)-9-methoxy-3-methyl-8-(4,4,5,5-tetramethyl-1,3,2-dioxaborolan-2-yl)-3,4-dihydro-1H-chromeno[3,4-c]pyridin-5(2H)-one], which “hydrolysis of 1,3-dioxane acetal by fluorescence decay” value ([1]; aqueous solution, 0 to 48 h, versus D-F07) is on record?
Its value is “stabilized the 1,3-dioxane acetal protecting group”.

For `CN1CCc2c(c(=O)oc3c(C=O)c(O)ccc23)C1` [Compound 3], which “inhibition of XBP-1s expression, short term” value (“inhibition … short term” for short) [2] is on record?
Its value is “began to lose its inhibitory effect within 4 h”.

What about the “inhibition of XBP-1s expression” value ([2]; 10 μM for 0, 3, 6, 12 or 24 h) of the same compound?
Its value is “rapidly inhibited the expression of XBP-1s; also recorded: much better long-term inhibitory activities than 1”.

What about the “suppression of XBP-1s expression, long term” value (“suppression … long term” below) [2] of the same compound?
The value was “recovered significantly in cells treated for 2 days”.

What about the “overall comparison of inhibition of IRE-1 / XBP-1s expression in whole cells” value ([2]; summary statement) of the same compound?
Its value is “most efficient aldehyde compounds in inhibiting IRE-1 in intact cells”.

For `CC1(C)COC(c2c(O)ccc3c4c(c(=O)oc23)CNCC4)OC1` [Compound 5, 7-(5,5-dimethyl-1,3-dioxan-2-yl)-8-hydroxy-3,4-dihydro-1H-chromeno[3,4-c]pyridin-5(2H)-one], which “fluorescence intensity remaining (decomposition)” value ([1]; PBS with 1% DMSO, 48 h, from 100%) is on record?
Its value is “approximately 60%”.

For `CN1CCc2c(c(=O)oc3c(C4OCCCO4)c(O)ccc23)C1` [Compound 7, 7-(1,3-dioxan-2-yl)-8-hydroxy-3-methyl-1,2,3,4-tetrahydro-5H-chromeno[3,4-c]pyridin-5-one], which “suppression … long term” value [2] is on record?
The value was “continuously suppressed even after 3-day treatment; also recorded: more effective than 8 in suppressing the expression of XBP-1s for a longer term”.

What about the “concentration that effectively blocks XBP-1s expression” value ([2]; 24 h) of the same compound?
The value was 10 µM.

What about the “growth inhibition / cytotoxicity (XTT)” value (5TGM1 cells; 20 μM for a course of 3 days) of the same compound?
The value was “more potent than their respective aldehyde counterparts”.

For `CC(=O)N/N=C/c1c(O)ccc2c3c(c(=O)oc12)CN(C)CC3` [Compound 8, (E)-N′-((8-hydroxy-3-methyl-5-oxo-1,3,4,5-tetrahydro-2H-chromeno[3,4-c]pyridin-7-yl)methylene)acetohydrazide], which “inhibition … short term” value [2] is on record?
Its value is “rapidly inhibited XBP-1s; also recorded: effectively inhibit the expression of XBP-1s for longer than 4 h; also recorded: inhibited the expression of XBP-1s more rapidly than 7”.

What about the “suppression … long term” value [2] of the same compound?
The value was “lost its inhibitory effect after treatment for 2 days”.

What about the “hydrolysis rate (HPLC degradation)” value ([3]; RPMI media) of the same compound?
Its value is “faster hydrolysis relative to 7”.

What about the “suppression of XBP-1s expression” value [4] of the same compound?
Its value is “rapidly suppressed the expression of XBP-1s”.

With `COc1cc2c3c(c(=O)oc2c(/C=N/NC(C)=O)c1O)CN(C)CC3` [Compound 10, (E)-N′-((8-hydroxy-9-methoxy-3-methyl-5-oxo-1,3,4,5-tetrahydro-2H-chromeno[3,4-c]pyridin-7-yl)methylene)acetohydrazide] as the compound, how does the “inhibition … short term” value [2] read?
The value was “suppressed the expression of XBP-1s more rapidly than 8”.

What about the “suppression … long term” value [2] of the same compound?
The value was “exhibited a long-term inhibitory effect; also recorded: slightly recovered in cells treated with 10 for 3 days”.

What about the “growth suppression (XTT)” value (WaC3 cells) of the same compound?
The value was “initially more potent than 7 and 8 in suppressing WaC3 cell growth; also recorded: incapable of continuously inhibiting the growth of WaC3 cells”.

Which “expression of XBP-1s (ER stress induction)” value ([2]; 10 μM, 0 to 24 h) does the source give for `N[C@@H](CSc1ccc([N+](=O)[O-])cc1[N+](=O)[O-])C(=O)O` [Compound 12, (S-2,4-Dinitrophenyl)cysteine] here?
Its value is “time-dependent increased expression of XBP-1s”.

And the “cytotoxicity / growth inhibition (XTT)” value (MEC2 cells)?
The value was “not cytotoxic to MEC2 cells”.

What does the source list for `COc1cc2c3c(c(=O)oc2c(C2OCCCO2)c1OC(C)c1ccc(C(=O)OCC[Si](C)(C)C)cc1[N+](=O)[O-])CN(C)CC3` [PC-D-F07, 2-(trimethylsilyl)ethyl 4-(1-((7-(1,3-dioxan-2-yl)-9-methoxy-3-methyl-5-oxo-1,3,4,5-tetrahydro-2H-chromeno[3,4-c]pyridin-8-yl)oxy)ethyl)-3-nitrobenzoate]?
suppression of XBP-1s after removal of compound from media ([2]; 10 μM 4 h, washed, UV 10 min, 8 h culture): suppression of XBP-1s expression; stability (HPLC) ([3]; PBS, 48 h): completely stable; stability (HPLC) ([3]; RPMI media, 96 h): completely stable

Which results are given for `COc1cc2c3c(c(=O)oc2c(C2OCCCO2)c1OS(=O)(=O)c1ccc([N+](=O)[O-])cc1[N+](=O)[O-])CN(C)CC3` [TC-D-F07, 7-(1,3-dioxan-2-yl)-9-methoxy-3-methyl-5-oxo-1,3,4,5-tetrahydro-2H-chromeno[3,4-c]pyridin-8-yl 2,4-dinitrobenzenesulfonate]?
suppression of XBP-1s expression ([2]; 2.5 μM, 3 h): significantly suppress the expression of XBP-1s; levels of XBP-1s, time course ([2]; 2.5 μM, 12 h): the levels of XBP-1s began to recover; levels of XBP-1s, time course ([2]; 10 μM, 0 to 12 h): initially increased after 3-h treatment and subsequently decreased in response to continuous 12-h treatment; levels of XBP-1s ([2]; 10 and 20 μM, 3 h): levels of XBP-1s increased; intact compound ([3]; 4-h incubation in both PBS and RPMI media): 90%; decomposition rate (HPLC) versus D-F07 ([3]; PBS): slower decomposition rate; cytotoxicity / growth inhibition (XTT) (MEC2 cells): potently inhibited the growth of these cells; cytotoxicity (XTT) (5TGM1 cells; 0, 2.5, 5, 10 or 20 μM, 24 h): more cytotoxic than D-F07
